Experimental data reported in US4997950A, “Novel C-terminal gastrin antagonists” (priority 1989, dated 1991).
Entries after “also recorded” stand apart in the source; their conditions may differ. Counter-ions that a name gives are not always drawn. One block for each compound: values may come before it. Non-standard residues stand in square brackets, D forms with d. Residues, ends and D or L forms follow the SMILES beside them. *: point of attachment. Boc = CC(C)(C)OC(=O)*; βAla = NCCC(=O)O

Experiments:
[1] = system: acid secretion, isolated perfused rat stomach; assay: acid output from the isolated, perfused rat stomach, with or without gastrin-17; set-up: species or system rat (Wistar)
Protocol: In brief, stomachs from fasted male Wistar rats (240-270 g) were completely isolated and placed in organ baths filled with Krebs-Ringer buffer. The vascular bed was perfused at a rate of 2 ml.min^-1 with Krebs-Ringer buffer containing 5 mM glucose, 5 mM pyruvate, 40 mg.ml^-1 bovine serum albumin and 10% (v/v) fresh, washed ovine erythrocytes gassed with 96% O2, 4% CO2 by a membrane oxygenator. The gastric lumen was perfused with distilled water (pH 7.0) gassed with O2 (100%). All perfusates and the organ bath were kept at 37° C. After an initial "wash-out" period of 20 minutes, isobutylmethylxanthine (50 μM) was added to the vascular perfusate. After a further 20 minutes, the peptide to be tested was added, giving a final peptide concentration of 10^-9, 10^-7 or 10^-5 M. Five other stomachs were given 520 pM gastrin which was known to produce maximal acid secretion. Furthermore, each peptide was given together with gastrin (520 pM) to evaluate the gastrin inhibitory properties of the peptide. The acid output was determined by titration of the lumenal perfusate to neutrality with dodium hydroxide (1 mM).

[2] = system: gastrin / pentagastrin-stimulated acid secretion; settings: cited from earlier work
[3] = system: pentagastrin stimulated acid secretion, rat stomach; assay: acid secretion from the ligated rat stomach; type: in vivo, rat (Sprague-Dawley); settings: for ACID SECRETION: basal 26.7 ± 3.21
Protocol: In brief fasted male Sprague-Dawley rats (200-250 g) were anaesthetised by the intravenous administration of Sagital (0.1 mg/100 g body weight). The abdominal cavity of each rat was exposed and the stomach was ligated at the pyloric and cardiac sphincters. The test solution (200 μl), containing either saline, pentagastrin (1 μg) or the synthetic peptide in conjunction with pentagastrin (1 μg), was applied directly to the exposed stomach surface, and left for 80 minutes. The stomach was then removed and the contents were washed out with distilled water (15 ml). The washings were titrated to neutrality by the addition of sodium hydroxide (10 mM).

pepsin secretion = assay: inhibition of pepsin secretion in dogs with gastric fistula and Heidenhain pouch; type: in vivo, dog (beagle); settings: for effect on pepsin secretion: gastric fistula
Protocol: (§1) In brief, six beagle dogs were surgically prepared with Heidenhain pouches and gastric fistula. The dogs were fasted for 18 hours before the experiment. […] Collections of gastric secretions were recovered at 10 minute intervals. Each dog received an intravenous infusion throughout the experiment consisting of 150 mM NaCl and 8 mM KCl at 2 ml.min^-1. Secretory stimulants and the synthetic peptides were added to this infusion at appropriate rates. The stimulants of gastric secretion used were pentagastrin and histamine phosphate. Pentagastrin (0.5 μg.Kg^-1.h^-1) was given for 1 hour and then the synthetic peptide was added to the infusion and continued for another hour at a dose of 20 pmol.kg^-1 h^-1. The procedure was identical for histamine except that the dose of histamine was […]. The ten minute samples were titrated to pH 7.0 by the addition of sodium hydroxide (1 mM) and the acid secretion was expressed as μmol H^+ per 10 minutes.

[4] = system: pentagastrin-stimulated acid secretion; assay: inhibition of pentagastrin-stimulated acid secretion in dogs with gastric fistula and Heidenhain pouch; type: in vivo, dog (beagle); settings: for order of decreasing antagonist activity: 20 pmol.kg^-1.h^-1; for effect on pentagastrin-stimulated acid secretion: 20 pmol.kg^-1.h^-1, gastric fistula and Heidenhain pouch; for ACID INHIBITION / percentage inhibition of acid: analogue 20 pmol.kg^-1.h^-1, period 110-170 minutes
Protocol: as §1
The analogues depicted in Table 6.5 were tested as gastrin antagonists using dogs surgically prepared with gastric fistulae and Heidenhain pouches. The acid secretion was measured at 10 minute intervals during the administration of pentagastrin and each of the analogues.

SMILES: CSCCC(NC(=O)C(Cc1c[nH]c2ccccc12)NC(=O)CNC(=O)C(Cc1ccc(O)cc1)NC(=O)C(C)NC(=O)C(CCC(=O)O)NC(=O)C(CCC(=O)O)NC(=O)C(CCC(=O)O)NC(=O)[C@H](CCC(=O)O)NC(=O)[C@H](CCC(=O)O)NC(=O)[C@H](CC(C)C)NC(=O)[C@H](Cc1c[nH]c2ccccc12)NC(=O)[C@@H]1CCCN1C(=O)CNC(=O)[C@@H](N)CCC(=O)O)C(=O)NC(CC(=O)O)C(=O)NC(Cc1ccccc1)C(N)=O (stereo in doubt) [GASTRIN]
Acid output ([1]; gastrin 520 pM alone, basal 8.7): 58.7 μmol H^+ /60 min

SMILES: CC(C)C[C@H](NC(=O)[C@H](Cc1c[nH]c2ccccc12)NC(=O)OC(C)(C)C)C(=O)N[C@@H](CC(=O)O)C(N)=O [N-tBOC-Trp-Leu-Asp-NH2] (Boc-Trp-Leu-Asp-NH2)
antagonist activity [2]: shortest sequence still retaining antagonist activity
concentration at which antagonist properties are exhibited [2]: 100 µM
reduction of acid secretion ([2]; joint infusion of peptide (40 μg/kg) and pentagastrin (0.5 μg/kg)): 50%

SMILES: CSCC[C@H](NC(=O)[C@H](Cc1c[nH]c2ccccc12)NC(=O)CCNC(=O)OC(C)(C)C)C(=O)N[C@@H](CC(=O)O)C(=O)N[C@@H](Cc1ccccc1)C(N)=O [PENTAGASTRIN, reference compound]
ACID SECRETION ([3]; pentagastrin 13 nmol/kg alone): 60.6 ± 8.63 μmol/80 min

SMILES: CC(C)C[C@H](NC(=O)[C@H](Cc1c[nH]c2ccccc12)NC(=O)OC(C)(C)C)C(=O)NCCC(=O)O [Peptide I, t-Butyloxycarbonyl-L-Tryptophyl-L-Leucyl-β-Alanine] (Boc-Trp-Leu-[βAla]-OH)
ACID SECRETION ([3]; peptide 8.2 nmol/kg + pentagastrin 13 nmol/kg): 22.7 ± 7.27 μmol/80 min
effect on acid secretion, ligated stomach ([3]; peptide I 8.2 nmol.Kg^-1 with pentagastrin, peptide XXII 80 or 4 pmol.Kg^-1): potent antagonist of pentagastrin stimulated acid secretion; also recorded: reduced to a value similar to the basal level
ACID SECRETION ([3]; peptide alone 8.2 nmol/kg): 28.6 ± 4.21 μmol/80 min
Inhibition of Pepsin Secretion (pepsin secretion; GF (gastric fistula)): 67.3 Units/kg
percentage inhibition of pepsin secretion (pepsin secretion; GF (gastric fistula)): 59.2%
Inhibition of Pepsin Secretion (pepsin secretion; HP (Heidenhain pouch)): 1.65 Units/kg
effect on pepsin secretion (pepsin secretion): significant decrease in pepsin secretion from the gastric fistula
order of decreasing antagonist activity [4]: I>III>XIV>XV>II
effect on pentagastrin-stimulated acid secretion ([4]; listed as Boc-Trp-Leu-β-Ala): retaining potent antagonistic properties
effect on pentagastrin-stimulated acid secretion ([4]; listed as Boc-Trp-leu-β-Ala): most potent antagonist of the series
ACID INHIBITION ([4]; GF (gastric fistula)): 617.58 mmol H^+ /kg
percentage inhibition of acid ([4]; GF (gastric fistula)): 60%
ACID INHIBITION ([4]; HP (Heidenhain pouch)): 35.70 mmol H^+ /kg
percentage inhibition of acid ([4]; HP (Heidenhain pouch)): 55.8%

SMILES: CC(C)C[C@H](NC(=O)CCc1ccccc1)C(=O)NCCC(=O)O [Peptide II, Phenyl-3-Propionyl-Leucyl-β-Alanine]
order of decreasing antagonist activity [4]: I>III>XIV>XV>II
effect on pentagastrin-stimulated acid secretion [4]: gastrin antagonists although they are less potent than the parent peptide
ACID INHIBITION ([4]; GF (gastric fistula)): 562.22 mmol H^+ /kg
percentage inhibition of acid ([4]; GF (gastric fistula)): 54.7%
ACID INHIBITION ([4]; HP (Heidenhain pouch)): 32.59 mmol H^+ /kg
percentage inhibition of acid ([4]; HP (Heidenhain pouch)): 50.92%

SMILES: CC(C)C[C@H](NC(=O)CCc1c[nH]c2ccccc12)C(=O)NCCC(=O)O [Peptide III, Indole-3-Propionyl-L-Leucyl-β-Alanine]
Inhibition of Pepsin Secretion (pepsin secretion; GF (gastric fistula)): 71.1 Units/kg
percentage inhibition of pepsin secretion (pepsin secretion; GF (gastric fistula)): 62.5%
Inhibition of Pepsin Secretion (pepsin secretion; HP (Heidenhain pouch)): 5.78 Units/kg
effect on pepsin secretion (pepsin secretion): significant decrease in pepsin secretion from the gastric fistula
order of decreasing antagonist activity [4]: I>III>XIV>XV>II
effect on pentagastrin-stimulated acid secretion [4]: gastrin antagonists although they are less potent than the parent peptide
ACID INHIBITION ([4]; GF (gastric fistula)): 125.51 mmol H^+ /kg
percentage inhibition of acid ([4]; GF (gastric fistula)): 12.2%

SMILES: CC(C)C[C@H](NC(=O)CCc1c[nH]c2ccccc12)C(=O)N[C@@H](CC(=O)O)C(=O)NCCc1ccccc1 [Peptide V, Indole-3-Propionyl-L-Leucyl-L-Aspartyl-Phenethylamide]
Inhibition of Pepsin Secretion (pepsin secretion; GF (gastric fistula)): -3.1 Units/kg
percentage inhibition of pepsin secretion (pepsin secretion; GF (gastric fistula)): 0%
Inhibition of Pepsin Secretion (pepsin secretion; HP (Heidenhain pouch)): 2.04 Units/kg
ACID INHIBITION ([4]; GF (gastric fistula)): 303.25 mmol H^+ /kg
percentage inhibition of acid ([4]; GF (gastric fistula)): 29.5%
ACID INHIBITION ([4]; HP (Heidenhain pouch)): 11.00 mmol H^+ /kg
percentage inhibition of acid ([4]; HP (Heidenhain pouch)): 17.2%

SMILES: CC(C)C[C@@H](C(=O)NCCC(=O)O)N(C)C(=O)CCc1ccccc1 [Peptide XIV, Phenyl-3-propionyl-N-methyl-L-Leucyl-β-Alanine]
order of decreasing antagonist activity [4]: I>III>XIV>XV>II
effect on pentagastrin-stimulated acid secretion [4]: antagonists with significant activity
ACID INHIBITION ([4]; GF (gastric fistula)): 256.77 mmol H^+ /kg
percentage inhibition of acid ([4]; GF (gastric fistula)): 25%

SMILES: CC(C)C[C@H](NC(=O)CCc1ccccc1)C(=O)N(C)CCC(=O)O [Peptide XV, Phenyl-3-propionyl-L-Leucyl-N-Methyl-β-Alanine]
order of decreasing antagonist activity [4]: I>III>XIV>XV>II
effect on pentagastrin-stimulated acid secretion [4]: antagonists with significant activity
ACID INHIBITION ([4]; GF (gastric fistula)): 185.32 mmol H^+ /kg
percentage inhibition of acid ([4]; GF (gastric fistula)): 18%

SMILES: CC(C)C[C@H](NC(=O)[C@@H](N)Cc1c[nH]c2ccccc12)C(=O)CN[C@@H](CC(=O)O)C(=O)N[C@@H](Cc1ccccc1)C(N)=O [Peptide XXI, L-Tryptophyl-L-Leucyl-.psi.(COCH2 NH)-L-Aspartyl-L-Phenylalanyl amide dihydrochloride]
effect on acid secretion, isolated perfused stomach ([1]; 10^-9 to 10^-5 M, absence or presence of gastrin-17 520 pM, dihydrochloride): At low concentrations it inhibits basal acid secretion; also recorded: when administered at 10^-5 M or in conjunction with gastrin-17, it acts as a weak agonist; also recorded: partial agonist
Acid output ([1]; peptide 10^-5 M + G-17 (520 pM), gastrin alone 58.7): 68.5 μmol H^+ /60 min
Acid output ([1]; peptide 10^-5 M, basal 8.7): 22.4 μmol H^+ /60 min
Acid output ([1]; peptide 10^-7 M, basal 8.7): 1.6 μmol H^+ /60 min
Acid output ([1]; peptide 10^-9 M, basal 8.7): 2.2 μmol H^+ /60 min

increase of affinity for the gastrin receptor as compared to pentagastrin ([3]; deduced from γ-lactam peptide acid secretion): approximately 120 fold
SMILES: CC(C)C[C@H](NC(=O)[C@H](Cc1c[nH]c2ccccc12)NC(=O)CN1CC[C@H](NC(=O)[C@H](C)NC(=O)OC(C)(C)C)C1=O)C(=O)N[C@@H](CC(=O)O)C(=O)N[C@@H](Cc1ccccc1)C(N)=O [Peptide XXII, t-Butyloxycarbonyl-L-Alanyl-amino-2-oxo-1-pyrrolidineacetyl-L-Tryptophyl-L-Leucyl-L-Aspartyl-L-Phenylalanyl amide]
